Source: ChEMBL document CHEMBL1201862, “PubChem BioAssay data set” (2004)
The source made the active and inactive calls.

Experiments:
ORF 73 = biological target: T1, ORF 73 (Human herpesvirus 8, UniProt O40947); test: inhibitors of C-LANA binding to LBS DNA, dose response, biochemical, fluorescence polarization, cherry-picked samples (AID 504725); parameters: species or system Human gammaherpesvirus 8;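 also: fluorescence polarization of a labeled DNA duplex reporting LANA DNA binding; potency is for inhibitors that block LANA binding to the DNA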
T1 sequence (O40947 whole entry): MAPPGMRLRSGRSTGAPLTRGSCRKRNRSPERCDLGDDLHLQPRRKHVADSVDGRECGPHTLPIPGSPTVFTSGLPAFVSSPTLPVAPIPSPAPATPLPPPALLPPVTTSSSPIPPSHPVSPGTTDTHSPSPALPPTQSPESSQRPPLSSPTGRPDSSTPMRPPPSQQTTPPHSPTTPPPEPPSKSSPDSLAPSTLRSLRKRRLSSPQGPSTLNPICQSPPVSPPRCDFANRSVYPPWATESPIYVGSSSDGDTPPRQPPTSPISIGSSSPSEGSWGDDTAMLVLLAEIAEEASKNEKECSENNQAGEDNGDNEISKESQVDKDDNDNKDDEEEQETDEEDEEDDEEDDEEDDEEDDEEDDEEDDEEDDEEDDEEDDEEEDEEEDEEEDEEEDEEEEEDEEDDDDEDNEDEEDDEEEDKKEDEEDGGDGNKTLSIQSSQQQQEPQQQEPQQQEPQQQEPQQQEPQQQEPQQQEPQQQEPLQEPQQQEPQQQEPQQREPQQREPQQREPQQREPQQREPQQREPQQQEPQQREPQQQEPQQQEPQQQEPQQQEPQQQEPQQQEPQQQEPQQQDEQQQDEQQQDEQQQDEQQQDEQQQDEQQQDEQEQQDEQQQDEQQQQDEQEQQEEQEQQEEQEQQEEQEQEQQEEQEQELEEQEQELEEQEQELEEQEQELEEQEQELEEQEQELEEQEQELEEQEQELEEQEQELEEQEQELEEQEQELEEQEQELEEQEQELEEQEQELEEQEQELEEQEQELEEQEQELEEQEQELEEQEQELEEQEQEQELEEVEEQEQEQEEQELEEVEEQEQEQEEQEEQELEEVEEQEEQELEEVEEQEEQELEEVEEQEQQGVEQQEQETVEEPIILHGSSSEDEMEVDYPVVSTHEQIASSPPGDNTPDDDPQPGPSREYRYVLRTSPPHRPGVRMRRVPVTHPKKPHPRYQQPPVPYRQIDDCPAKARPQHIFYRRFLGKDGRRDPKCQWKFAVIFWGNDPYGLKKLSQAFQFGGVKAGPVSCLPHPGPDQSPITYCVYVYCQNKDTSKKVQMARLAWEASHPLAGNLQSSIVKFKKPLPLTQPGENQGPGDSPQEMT

Protein skinhead-1 = biological target: T2, Protein skinhead-1 (Caenorhabditis elegans, UniProt P34707); type: functional
T2 sequence (P34707 whole entry): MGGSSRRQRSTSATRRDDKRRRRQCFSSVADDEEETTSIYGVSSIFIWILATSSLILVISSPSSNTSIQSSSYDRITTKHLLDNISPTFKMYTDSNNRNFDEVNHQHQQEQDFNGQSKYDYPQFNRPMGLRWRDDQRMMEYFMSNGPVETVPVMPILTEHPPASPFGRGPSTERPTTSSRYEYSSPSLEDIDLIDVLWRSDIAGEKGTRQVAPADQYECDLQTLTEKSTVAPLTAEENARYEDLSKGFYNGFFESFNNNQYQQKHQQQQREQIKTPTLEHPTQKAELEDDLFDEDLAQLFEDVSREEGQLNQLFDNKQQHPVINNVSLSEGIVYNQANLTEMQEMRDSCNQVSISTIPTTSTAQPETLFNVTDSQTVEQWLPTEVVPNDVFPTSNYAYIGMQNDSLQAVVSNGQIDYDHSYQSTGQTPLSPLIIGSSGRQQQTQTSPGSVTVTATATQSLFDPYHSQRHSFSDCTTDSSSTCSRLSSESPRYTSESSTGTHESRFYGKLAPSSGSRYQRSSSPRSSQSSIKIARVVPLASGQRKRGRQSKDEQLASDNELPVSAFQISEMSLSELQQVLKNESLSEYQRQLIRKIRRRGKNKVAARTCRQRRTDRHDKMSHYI

[1] = cytotoxicity in HEK-293T cells, dose response, cytotoxicity control for TCR NF-kB inhibitor project, luminescence, T-cell screen hits (AID 489026); type: functional, cell-based;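 also: cells exposed to compound about 14 hours before the viability readout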
[2] = biological target: T3, Endoribonuclease toxin MazF (Escherichia coli K-12, UniProt P0AE70); test: MazF toxin RNase activators, dose response, biochemical, fluorescence, single-stranded RNA substrate, uHTS hits (AID 588481); type: functional
T3 sequence (P0AE70 whole entry): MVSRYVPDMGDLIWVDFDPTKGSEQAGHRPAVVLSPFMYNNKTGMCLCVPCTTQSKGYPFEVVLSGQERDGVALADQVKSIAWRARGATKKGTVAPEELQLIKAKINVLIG

[3] = biological target: T3, Endoribonuclease toxin MazF; test: fluorescent RNA oligo signal without MazF, dose response, counter-screen for MazEF activator project, biochemical, fluorescence, single-stranded RNase substrate (AID 588502); type: functional
[4] = Vero E6 cell cytotoxicity, dose response, cytotoxicity control for non-replicating M. tuberculosis project, secondary assay (AID 492998); type: functional, VeroE6; settings: Vero C1008
cells = type: functional
[5] = THP-1 cell cytotoxicity, dose response, cytotoxicity control for non-replicating M. tuberculosis project (AID 489025); type: functional
[6] = biological target: T4, E3 ubiquitin-protein ligase XIAP (Homo sapiens, UniProt P98170); test: Counter Screen using XIAP-Bir3 for Chemical Antagonists of Bir1/2 domains of IAP-family anti-apoptotic proteins. [Related pubchem assays (depositor defined):AID1018, AID1449, AID1514, AID1638, AID1749, AID1750, AID488957, AID488963]
[7] = biological target: T4, E3 ubiquitin-protein ligase XIAP; test: XIAP antagonists, biochemical, IAP family, fluorescence polarization (AID 1018); type: functional
[8] = biological target: T5, Voltage-gated N-type calcium channel alpha-1B subunit/Amyloid beta A4 precursor protein-binding family A member 1 (Homo sapiens, UniProt Q00975+Q02410); type: protein assay
[9] = Luminescence Cell-Based Dose Retest to Confirm Inhibitors of Cancer Stem Cells. [Related pubchem assays (depositor defined):AID2717, AID2721]; type: functional; settings: Homo sapiens
[10] = biological target: T6, Heat shock factor protein 1 (Mus musculus, UniProt P38532); test: inhibition of MG132-induced HSE-luciferase signal, confirmation, cell-based, NIH3T3, luminescence, dose retest (AID 2382); type: functional;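 also: NIH3T3 fibroblasts with HSF1-driven luciferase reporter stressed by proteasome inhibitor MG132; luminescence from HSF1-driven luciferase expression after 8 hours of MG132 stress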
T6 sequence (P38532 whole entry): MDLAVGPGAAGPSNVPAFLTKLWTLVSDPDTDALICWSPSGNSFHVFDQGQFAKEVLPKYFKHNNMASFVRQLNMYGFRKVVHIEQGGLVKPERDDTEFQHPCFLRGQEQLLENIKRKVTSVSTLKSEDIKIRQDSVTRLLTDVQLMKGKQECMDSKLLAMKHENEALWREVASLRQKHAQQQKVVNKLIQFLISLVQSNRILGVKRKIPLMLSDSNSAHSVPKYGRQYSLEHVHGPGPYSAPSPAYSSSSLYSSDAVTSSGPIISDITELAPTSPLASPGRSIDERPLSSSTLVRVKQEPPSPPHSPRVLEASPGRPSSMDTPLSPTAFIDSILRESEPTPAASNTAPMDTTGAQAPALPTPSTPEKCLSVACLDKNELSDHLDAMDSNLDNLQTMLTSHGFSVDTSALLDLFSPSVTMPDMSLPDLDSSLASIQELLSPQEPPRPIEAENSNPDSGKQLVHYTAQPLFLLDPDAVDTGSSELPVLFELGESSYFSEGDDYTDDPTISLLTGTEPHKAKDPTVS

[11] = biological target: T5, Voltage-gated N-type calcium channel alpha-1B subunit/Amyloid beta A4 precursor protein-binding family A member 1; type: protein assay; remark: listed apart in the source
X-box-binding protein 1 = biological target: T7, X-box-binding protein 1 (Homo sapiens, UniProt P17861); type: functional, Cricetulus griseus;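 also: confirmatory dose-response counter-screen serving a CHOP assay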
T7 sequence (P17861 whole entry): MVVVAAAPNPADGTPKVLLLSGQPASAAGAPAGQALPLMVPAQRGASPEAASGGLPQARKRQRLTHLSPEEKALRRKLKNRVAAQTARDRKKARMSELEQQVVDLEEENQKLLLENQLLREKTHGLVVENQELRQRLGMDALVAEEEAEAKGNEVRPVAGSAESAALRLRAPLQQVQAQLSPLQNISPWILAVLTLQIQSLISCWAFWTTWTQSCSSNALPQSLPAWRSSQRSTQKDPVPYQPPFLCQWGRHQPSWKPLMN

Streptokinase A = biological target: T8, Streptokinase A (Streptococcus pyogenes serotype M1, UniProt P10520); test: S. pyogenes streptokinase expression inhibitors, potency, dose response, plasminogen activation absorbance, OD405 (AID 1914); type: functional, Streptococcus pyogenes M1 GAS;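 also: secreted streptokinase activity via plasminogen activation per viability signal from cell pellet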
T8 sequence (P10520 whole entry): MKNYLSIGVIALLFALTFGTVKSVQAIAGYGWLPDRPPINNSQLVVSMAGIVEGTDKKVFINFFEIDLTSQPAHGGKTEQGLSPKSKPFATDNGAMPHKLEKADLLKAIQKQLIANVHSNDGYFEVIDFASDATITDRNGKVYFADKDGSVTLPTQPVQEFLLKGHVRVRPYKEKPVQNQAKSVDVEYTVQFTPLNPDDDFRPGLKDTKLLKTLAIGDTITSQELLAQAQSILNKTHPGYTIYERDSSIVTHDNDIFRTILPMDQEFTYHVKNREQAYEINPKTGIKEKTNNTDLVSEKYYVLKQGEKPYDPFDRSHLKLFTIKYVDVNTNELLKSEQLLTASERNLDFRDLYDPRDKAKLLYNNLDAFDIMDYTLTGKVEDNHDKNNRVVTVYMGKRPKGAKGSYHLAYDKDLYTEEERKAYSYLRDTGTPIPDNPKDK

Streptococcus = test: Group A Streptococcus viability loss, dose response, counter-screen for streptokinase expression inhibitor project, luminescence, BacTiterGlo (AID 1915); type: functional, organism-based;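 also: potency for reduction of bacterial viability or growth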
[12] = test system: Streptococcus sp. 'group A'; test: growth inhibition of control SK(-) GAS strain, dose response, counter-screen for streptokinase expression inhibitor project, luminescence, kanamycin, BacTiterGlo, confirmation (AID 1900); type: functional, organism-based
Trypsin = Trypsin (Sus scrofa, UniProt P00761); test: porcine trypsin inhibitors, dose response, selectivity assay for Rce1 protease inhibitor project, biochemical, quenched peptide fluorescence, cherry-pick (AID 488789)
[13] = biological target: DNA dC->dU-editing enzyme APOBEC-3G (Homo sapiens, UniProt Q9HC16); test: Dose Response confirmation of small molecule APOBEC3G DNA Deaminase Inhibitors via a fluorescence-based single-stranded DNA deaminase assay. [Related pubchem assays (depositor defined):AID493012, AID493028]; type: functional
[14] = biological target: Induced myeloid leukemia cell differentiation protein Mcl-1 (Homo sapiens, UniProt Q07820); type: functional
SUMO-activating enzyme [15] = biological target: T9, SUMO-activating enzyme (Homo sapiens, UniProt Q9UBT2); test: SUMOylation inhibitor hit validation, confirmation, SUMOylation inhibitor project, biochemical, AlphaScreen (AID 2018); type: functional
SUMO-activating enzyme [16] = biological target: T9, SUMO-activating enzyme; test: inhibitors of in vitro SUMOylation cascade, primary screen, biochemical, HTRF, uHTS (AID 2006); type: protein-complex assay

T5 sequence (Q00975 whole entry): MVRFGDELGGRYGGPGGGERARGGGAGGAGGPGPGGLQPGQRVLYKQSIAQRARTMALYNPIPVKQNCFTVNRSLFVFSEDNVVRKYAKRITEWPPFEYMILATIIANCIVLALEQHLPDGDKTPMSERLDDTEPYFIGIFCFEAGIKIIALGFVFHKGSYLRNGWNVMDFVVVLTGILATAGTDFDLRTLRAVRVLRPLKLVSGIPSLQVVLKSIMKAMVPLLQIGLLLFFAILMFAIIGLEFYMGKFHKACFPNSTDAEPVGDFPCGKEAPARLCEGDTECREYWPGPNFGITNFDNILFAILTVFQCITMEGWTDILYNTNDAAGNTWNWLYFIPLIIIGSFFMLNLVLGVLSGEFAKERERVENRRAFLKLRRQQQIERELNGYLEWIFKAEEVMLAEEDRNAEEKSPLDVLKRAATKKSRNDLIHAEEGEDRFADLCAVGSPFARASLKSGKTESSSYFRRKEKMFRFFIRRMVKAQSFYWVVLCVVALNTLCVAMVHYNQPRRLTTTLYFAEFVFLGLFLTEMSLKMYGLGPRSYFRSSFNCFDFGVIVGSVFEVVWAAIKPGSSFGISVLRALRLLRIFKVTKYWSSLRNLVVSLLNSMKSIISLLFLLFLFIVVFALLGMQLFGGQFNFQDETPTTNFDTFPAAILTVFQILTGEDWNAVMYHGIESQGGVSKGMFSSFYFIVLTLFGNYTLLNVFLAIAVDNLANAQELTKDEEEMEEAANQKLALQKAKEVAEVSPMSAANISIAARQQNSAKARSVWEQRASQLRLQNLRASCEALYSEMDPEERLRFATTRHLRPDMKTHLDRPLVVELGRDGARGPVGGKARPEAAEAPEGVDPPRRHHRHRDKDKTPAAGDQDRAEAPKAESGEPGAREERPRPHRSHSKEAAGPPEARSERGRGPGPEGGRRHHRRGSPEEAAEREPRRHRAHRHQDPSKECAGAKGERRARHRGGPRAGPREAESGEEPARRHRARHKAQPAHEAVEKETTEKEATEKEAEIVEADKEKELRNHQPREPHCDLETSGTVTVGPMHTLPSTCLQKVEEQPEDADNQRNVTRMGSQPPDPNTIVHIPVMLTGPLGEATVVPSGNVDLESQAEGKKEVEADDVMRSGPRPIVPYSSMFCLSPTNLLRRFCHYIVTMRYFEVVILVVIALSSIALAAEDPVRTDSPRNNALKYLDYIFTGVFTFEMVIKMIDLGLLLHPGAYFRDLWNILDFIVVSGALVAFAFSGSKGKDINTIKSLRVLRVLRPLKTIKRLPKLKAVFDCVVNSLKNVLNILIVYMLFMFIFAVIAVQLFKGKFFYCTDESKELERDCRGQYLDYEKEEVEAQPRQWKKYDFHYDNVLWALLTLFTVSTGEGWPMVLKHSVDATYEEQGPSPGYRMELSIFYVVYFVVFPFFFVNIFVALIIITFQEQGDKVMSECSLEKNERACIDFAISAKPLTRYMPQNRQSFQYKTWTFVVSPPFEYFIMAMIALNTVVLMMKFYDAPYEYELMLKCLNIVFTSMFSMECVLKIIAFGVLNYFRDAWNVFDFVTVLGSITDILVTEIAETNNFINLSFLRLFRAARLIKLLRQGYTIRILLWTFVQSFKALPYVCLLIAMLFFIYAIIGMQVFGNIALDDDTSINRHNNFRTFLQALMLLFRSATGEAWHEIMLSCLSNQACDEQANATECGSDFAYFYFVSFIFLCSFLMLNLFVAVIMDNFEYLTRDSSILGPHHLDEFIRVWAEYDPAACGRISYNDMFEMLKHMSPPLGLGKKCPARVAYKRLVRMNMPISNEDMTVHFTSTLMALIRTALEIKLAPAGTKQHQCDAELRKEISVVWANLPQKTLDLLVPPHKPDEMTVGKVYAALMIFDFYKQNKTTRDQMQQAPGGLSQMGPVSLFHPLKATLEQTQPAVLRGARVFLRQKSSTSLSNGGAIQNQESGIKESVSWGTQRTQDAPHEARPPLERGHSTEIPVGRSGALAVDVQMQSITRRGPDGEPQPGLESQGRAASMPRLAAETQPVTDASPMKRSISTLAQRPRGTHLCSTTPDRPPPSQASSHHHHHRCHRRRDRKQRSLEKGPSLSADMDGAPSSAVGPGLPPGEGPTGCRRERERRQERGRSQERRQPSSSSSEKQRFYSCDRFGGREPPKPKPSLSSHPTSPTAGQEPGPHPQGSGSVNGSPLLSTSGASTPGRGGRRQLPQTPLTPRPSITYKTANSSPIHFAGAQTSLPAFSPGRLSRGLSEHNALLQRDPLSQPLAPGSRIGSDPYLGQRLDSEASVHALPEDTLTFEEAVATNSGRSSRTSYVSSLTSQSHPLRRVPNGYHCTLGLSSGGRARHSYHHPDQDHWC
T5 sequence (Q02410 whole entry): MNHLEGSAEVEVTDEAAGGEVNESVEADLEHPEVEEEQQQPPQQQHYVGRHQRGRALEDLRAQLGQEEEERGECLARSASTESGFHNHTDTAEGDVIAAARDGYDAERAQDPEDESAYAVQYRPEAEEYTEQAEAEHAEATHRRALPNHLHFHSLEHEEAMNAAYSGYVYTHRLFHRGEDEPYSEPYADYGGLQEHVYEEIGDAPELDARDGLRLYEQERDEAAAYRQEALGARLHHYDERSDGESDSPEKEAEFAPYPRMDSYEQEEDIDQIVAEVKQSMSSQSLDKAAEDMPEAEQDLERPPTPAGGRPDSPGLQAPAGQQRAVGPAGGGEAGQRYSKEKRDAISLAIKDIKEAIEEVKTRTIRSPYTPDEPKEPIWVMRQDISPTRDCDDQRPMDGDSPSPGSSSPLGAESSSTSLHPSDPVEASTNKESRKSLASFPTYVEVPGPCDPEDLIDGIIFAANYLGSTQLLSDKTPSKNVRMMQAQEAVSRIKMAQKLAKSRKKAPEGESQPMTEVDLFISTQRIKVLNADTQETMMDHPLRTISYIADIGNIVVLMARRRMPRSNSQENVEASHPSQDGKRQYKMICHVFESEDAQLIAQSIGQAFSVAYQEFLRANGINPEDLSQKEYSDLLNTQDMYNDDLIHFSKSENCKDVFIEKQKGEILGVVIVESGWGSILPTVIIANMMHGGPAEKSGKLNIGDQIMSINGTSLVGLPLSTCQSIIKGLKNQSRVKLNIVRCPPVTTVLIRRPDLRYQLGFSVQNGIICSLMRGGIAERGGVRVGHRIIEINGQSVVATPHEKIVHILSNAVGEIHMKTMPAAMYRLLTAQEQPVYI
T4 sequence (P98170 whole entry): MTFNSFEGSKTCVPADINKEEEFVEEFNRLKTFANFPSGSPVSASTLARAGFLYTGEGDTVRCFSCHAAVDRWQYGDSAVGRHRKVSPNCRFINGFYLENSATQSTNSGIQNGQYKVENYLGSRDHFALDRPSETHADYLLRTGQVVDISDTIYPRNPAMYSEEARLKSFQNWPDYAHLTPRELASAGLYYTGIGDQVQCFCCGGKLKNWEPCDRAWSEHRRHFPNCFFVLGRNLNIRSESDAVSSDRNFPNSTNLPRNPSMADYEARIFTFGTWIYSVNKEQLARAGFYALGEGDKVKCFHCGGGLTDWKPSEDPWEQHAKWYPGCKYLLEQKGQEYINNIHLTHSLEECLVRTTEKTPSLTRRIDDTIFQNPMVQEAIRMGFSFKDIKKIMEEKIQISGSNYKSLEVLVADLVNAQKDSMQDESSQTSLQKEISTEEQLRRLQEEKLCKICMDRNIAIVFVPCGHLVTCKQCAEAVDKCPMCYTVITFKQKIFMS
T9 sequence (Q9UBE0 whole entry): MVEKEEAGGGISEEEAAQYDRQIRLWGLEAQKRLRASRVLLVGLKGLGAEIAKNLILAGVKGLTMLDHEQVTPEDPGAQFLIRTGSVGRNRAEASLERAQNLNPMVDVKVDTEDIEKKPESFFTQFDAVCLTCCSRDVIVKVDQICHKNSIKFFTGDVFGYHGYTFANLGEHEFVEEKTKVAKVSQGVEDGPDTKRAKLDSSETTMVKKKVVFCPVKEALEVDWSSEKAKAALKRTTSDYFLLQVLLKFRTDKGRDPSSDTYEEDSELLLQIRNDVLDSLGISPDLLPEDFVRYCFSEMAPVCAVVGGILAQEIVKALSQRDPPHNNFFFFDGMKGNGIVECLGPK
T9 sequence (Q9UBT2 whole entry): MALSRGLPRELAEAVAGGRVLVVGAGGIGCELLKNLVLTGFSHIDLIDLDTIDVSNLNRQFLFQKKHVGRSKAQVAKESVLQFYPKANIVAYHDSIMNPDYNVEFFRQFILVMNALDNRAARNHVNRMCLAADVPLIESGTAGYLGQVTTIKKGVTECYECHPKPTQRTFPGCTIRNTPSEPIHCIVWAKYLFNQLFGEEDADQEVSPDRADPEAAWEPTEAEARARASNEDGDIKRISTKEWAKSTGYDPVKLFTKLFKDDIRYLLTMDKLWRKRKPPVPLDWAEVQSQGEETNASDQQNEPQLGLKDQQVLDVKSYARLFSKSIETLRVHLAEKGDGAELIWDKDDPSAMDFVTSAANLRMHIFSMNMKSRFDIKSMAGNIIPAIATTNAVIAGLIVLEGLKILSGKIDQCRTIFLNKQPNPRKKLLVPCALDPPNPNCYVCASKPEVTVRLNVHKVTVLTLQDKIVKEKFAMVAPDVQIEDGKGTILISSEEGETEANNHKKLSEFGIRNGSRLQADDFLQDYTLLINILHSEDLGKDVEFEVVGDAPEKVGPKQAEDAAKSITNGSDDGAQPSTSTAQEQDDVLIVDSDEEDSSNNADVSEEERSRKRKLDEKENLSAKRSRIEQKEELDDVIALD
Trypsin, sequence (P00761 whole entry): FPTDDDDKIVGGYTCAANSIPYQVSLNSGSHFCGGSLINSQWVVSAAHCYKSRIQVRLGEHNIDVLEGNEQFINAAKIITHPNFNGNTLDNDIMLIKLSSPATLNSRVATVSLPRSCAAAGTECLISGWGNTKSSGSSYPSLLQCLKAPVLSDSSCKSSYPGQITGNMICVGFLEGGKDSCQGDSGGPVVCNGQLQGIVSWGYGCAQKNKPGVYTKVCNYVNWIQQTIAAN

SMILES: Nc1cccc2cc(S(=O)(=O)O)ccc12
- AC50 (ORF 73): 108 µM (active)
- IC50 (Protein skinhead-1): > 100 µM (inactive)

SMILES: O=C(c1ccccc1)c1cc([N+](=O)[O-])ccc1N1CCOCC1
- IC50 [1]: > 80 µM (inactive)

SMILES: CCC(=O)Oc1ccc2c(c1)O/C(=C\c1ccco1)C2=O
- AC50 (ORF 73): 14.1 µM (active)
- EC50 [2]: > 99 µM (inactive)
- EC50 [3]: 31.5 µM (inactive)

SMILES: COC(=O)c1ccc(Sc2nnnn2-c2ccccc2)c([N+](=O)[O-])c1
- CC50 [4]: > 20 µM (active)
- IC50 (cells): 14.3 µM (active)
- CC50 [5]: 20.5 µM (active)

SMILES: CC(=O)c1cnc(-c2ccccc2)s1
- IC50 [6]: > 100 µM (inactive)
- IC50 [7]: > 100 µM (not active)

SMILES: CNC(=O)C1C(S)=NC(N)=C(C#N)C1c1ccccc1 (stereo not drawn)
- IC50 [8]: 1.68 µM (active)
- AC50 [9]: > 195 µM (inactive)
- EC50 [10]: 19 µM (active)
- IC50 [11]: > 50 µM (inactive)

SMILES: CCC(=O)OC1c2ccccc2C(=O)N1Cc1ccccc1 (stereo not drawn)
- IC50 [6]: > 100 µM (inactive)
- IC50 [7]: > 100 µM (not active)

SMILES: CC1CCCC(NC(=O)c2cn(C)c3ccc(S(=O)(=O)N4CCCC4)cc3c2=O)C1C (stereo not drawn)
- IC50 [6]: > 100 µM (inactive)
- IC50 [7]: > 100 µM (not active)

SMILES: CCc1nc2c(cnn2-c2ccc(Cl)cc2)c(=O)n1-c1ccc(OC)cc1
- Absolute IC50 (XBP1) (X-box-binding protein 1): 10 µM
- EC50 (Streptokinase A): > 150 µM (not active)
- EC50 (Streptococcus): > 150 µM (not active)
- EC50 [12]: 28.3 µM (active)

SMILES: COc1ccc(S(=O)(=O)NCC2CCCO2)cc1NC(=O)c1ccccc1F (stereo not drawn)
- AC50 (Trypsin): 33 µM (active)

SMILES: CCOC(=O)c1c(NC(=O)c2ccccc2Cl)sc2c1CCc1ccccc1-2
- IC50 [13]: > 100 µM (inactive)

SMILES: N=C1S/C(=C\c2ccco2)C(=O)N1c1ccc2c(c1)OCO2
- IC50 [14]: 9.96 µM (active)
- IC50 (SUMO-activating enzyme [15]): 13.4 µM (active)
- IC50 (SUMO-activating enzyme [16]): 39.9 µM (active)

SMILES: Cc1nc([N+](=O)[O-])c(Br)n1CC(=O)c1ccccc1
- CC50 [4]: 18.6 µM (active)
- IC50 (cells): 10.8 µM (active)
- CC50 [5]: 40 µM (active)

SMILES: C=CCOC(=O)/C=C/C(=O)NC(N)=O
- IC50 [8]: 7.61 µM (active)
- IC50 [11]: 2.95 µM (active)
